In one data set the test system is tubulin. The data set is described as follows: Inhibition of tubulin polymerization. Conditions: read-out: tubulin assembly inhibition; footnotes of Table 4. Type of data set: biochemical.
In data set [1] the test system is A2780-CIS cells (cisplatin-resistant). The data set is described as follows: Growth inhibition of A2780-CIS cells. It is filed as cell-based, human.
Another data set has as its system A2780wt cells. The data set is described as follows: Growth inhibition of A2780wt cells. Conditions: read-out: IC50 ± SD A2780wt. Type of data set: cell-based, human.
For a further data set, the system named is OVCAR-3 cells. Kind of data set: Growth inhibition of OVCAR-3 cells. Type of data set: cell-based, human.
Data set [2] in a line: iv and os pharmacokinetics in mice. Conditions: male, CD-1, mouse, plasma, 5 mg/kg. It is filed as in vivo.
The subject of data set [3] is A10 rat embryonic aortic smooth muscle cells. To be noted: read-out: IC50 ± SD A10; ref [16]; cited from earlier work.
Data set [4] concerns MCF-7 human breast carcinoma cells. To be noted: read-out: IC50 ± SD MCF-7; ref [16]; cited from earlier work.
In data set [5] the test system is HAOSMC human aortic smooth muscle cells. Conditions: read-out: IC50 ± SD HAOSMC; ref [16]; cited from earlier work.
Data set [6] has as its system HUVEC human umbilical vein endothelial cells. To be noted: read-out: IC50 ± SD HUVEC; ref [16]; cited from earlier work.
Data set [7] deals with PtK2 kidney epithelial cells. To be noted: read-out: IC50 ± SD PtK2; ref [16]; cited from earlier work.

`CC[C@]1(O)C[C@@H]2CN(CCc3c([nH]c4ccccc34)[C@@](C(=O)OC)(c3cc4c(cc3OC)N(C)[C@H]3[C@@](O)(C(=O)OC)[C@H](OC(C)=O)[C@]5(CC)C=CCN6CC[C@]43[C@@H]65)C2)C1` [VBL, vinblastine]: the IC50 in the data set on tubulin came to […].
For `N.N.[Cl][Pt][Cl]` [cisplatin], the “RI-1 (Resistant Index-1)” value in [1] (IC50 in A2780-CIS divided by IC50 in A2780wt) came out at 18.5. Moreover, the IC50 in data set [1] (read-out: IC50 ± SD A2780-CIS) is 8980 ± 565 nM; with A2780wt cells, 485 ± 60 nM; in the data set with OVCAR-3 cells (read-out: IC50 ± SD OVCAR-3), 1820 ± 254 nM. Moreover, in the data set on OVCAR-3 cells (IC50 in OVCAR-3 divided by IC50 in A2780wt), the “RI-2 (Resistant Index-2)” value is 3.7.
In general, clearance refers to the rate of elimination divided by the concentration. On to `COc1cc(Sc2c(-c3cc[nH]c3)[nH]c3ccccc23)cc(OC)c1OC` [Compound 5, 2-(1H-Pyrrol-3-yl)-3-[(3′,4′,5′-trimethoxyphenyl)thio]-1H-indole], for which the clearance in data set [2] was found to be 28.6 mL/min/kg.
In the case of `CC(=O)O[C@H]1C(=O)[C@@]2(C)[C@H]([C@H](OC(=O)c3ccccc3)[C@]3(O)C[C@H](OC(=O)[C@H](O)[C@@H](NC(=O)c4ccccc4)c4ccccc4)C(C)=C1C3(C)C)[C@]1(OC(C)=O)CO[C@@H]1C[C@@H]2O` [PTX, paclitaxel], the IC50 in data set [3] was 38 ± 10 nM; in data set [4] it was 3 ± 0.5 nM; in data set [5], 6 ± 6 nM; in [6] it was 7 ± 4 nM; in [7] it was 21 ± 8 nM.
`CCC1=C[C@@H]2CN(C1)Cc1c([nH]c3ccccc13)[C@@](C(=O)OC)(c1cc3c(cc1OC)N(C)[C@H]1[C@@](O)(C(=O)OC)[C@H](OC(C)=O)[C@]4(CC)C=CCN5CC[C@]31[C@@H]54)C2` [VRB, vinorelbine]: the IC50 with tubulin was determined as 3100 nM.

These data come from PMC3261769 (Journal of Medicinal Chemistry, 2011).
